Measured values from PubChem BioAssay (NCI).
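Compound exposure: 48 hours, 5 concentrations, 96-well plates. GI50 = concentration required for 50% inhibition of growth. At the TGI there is no net growth.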

Legend:
Assay in all cases: DTP human tumour cell line panel, 48 h
A498 renal = tested on: A498 renal
HCT-116 colon = tested on: HCT-116 colon
HOP-62 NSCLC = tested on: HOP-62 NSCLC
MDA-MB-231 breast = tested on: MDA-MB-231 breast
NCI-H226 lung = tested on: NCI-H226 lung
PC-3 prostate = tested on: PC-3 prostate
DLD-1 colon = tested on: DLD-1 colon
DMS 114 small cell lung = tested on: DMS 114 small cell lung
DMS 273 small cell lung = tested on: DMS 273 small cell lung
HOP-18 NSCLC = tested on: HOP-18 NSCLC
KM20L2 colon = tested on: KM20L2 colon
M19-MEL melanoma = tested on: M19-MEL melanoma
SNB-78 CNS = tested on: SNB-78 CNS
XF 498 CNS = tested on: XF 498 CNS
LXFL 529 NSCLC = tested on: LXFL 529 NSCLC

| Compound | TGI (A498 renal) [µM] | TGI (HCT-116 colon) [µM] | TGI (HOP-62 NSCLC) [µM] | TGI (MDA-MB-231 breast) [µM] | TGI (NCI-H226 lung) [µM] | TGI (PC-3 prostate) [µM] | other results |
| --- | --- | --- | --- | --- | --- | --- | --- |
| C/C(=N\NC(=S)N1CCOCC1)c1nc2ncccc2[nH]1 | > 100 | > 100 | 96 | > 100 | > 100 | > 100 |  |
| Cc1cc(Nc2ccc(Cl)cc2)nc(NCCCNc2ccnc3cc(Cl)ccc23)n1 |  |  | 3.07 |  |  | 3.18 | GI50 (HOP-62 NSCLC): 1.53 µM; GI50 (PC-3 prostate): 1.65 µM |
| NC(Cc1ccccc1CP(=O)(O)O)C(=O)O (stereo not given) |  | > 100 |  | > 100 |  | > 100 |  |
| CC(C)=CCC/C(C)=C/C=C/C(C)=C/C1C[C@@]2(C(O)O1)[C@H](CCCO)/C(=C(/C)C=O)CC[C@]2(C)O (stereo not given in full) |  | 37.9 |  |  | 40.9 |  | TGI (DLD-1 colon): 44.4 µM; TGI (DMS 114 small cell lung): 27.4 µM; TGI (DMS 273 small cell lung): 7.82 µM; TGI (HOP-18 NSCLC): 33.4 µM; TGI (KM20L2 colon): 29.1 µM; TGI (M19-MEL melanoma): 32.4 µM; TGI (SNB-78 CNS): 42 µM; TGI (XF 498 CNS): 32.7 µM |
| COc1cc2c(cc1OCCCOc1ccc(-c3cc4ccccc4c4ccccc34)cc1)N=C[C@@H]1CCCN1C2=O | 2.16 |  |  | 1.27 | 2.73 |  | GI50 (A498 renal): 0.894 µM; GI50 (MDA-MB-231 breast): 0.291 µM; GI50 (NCI-H226 lung): 1.28 µM |
| CCOC(=O)c1csc(NC(=O)C(C)N2CCOCC2)n1 (stereo not given) | > 100 |  | > 100 | > 100 |  | > 100 |  |
| COC(=O)C(NC(=O)c1ccccc1)C(c1c(O)cc(O)cc1O)P(=O)(OC)OC (stereo not given) | > 100 | > 100 | > 100 |  | > 100 |  | TGI (DLD-1 colon): > 100 µM; TGI (DMS 114 small cell lung): > 100 µM; TGI (DMS 273 small cell lung): > 100 µM; TGI (KM20L2 colon): > 100 µM; TGI (LXFL 529 NSCLC): > 100 µM; TGI (M19-MEL melanoma): > 100 µM; TGI (XF 498 CNS): > 100 µM |
| COc1cc(/C=C2/Oc3c(OC)cccc3C2=O)ccc1O | > 100 | > 100 | > 100 | > 100 | > 100 | > 100 |  |
